Reference: US6392098B1, “Conformationally restricted polyamines” (Wisconsin Alumni Research Foundation, priority 1997, dated 2002)
Counter-ions that a name gives are not always drawn.

Legend:
[1] = system: brain cancer cells U251MG-NCI; experiment: Growth of U251MG-NCI cells at fixed drug concentration (viable cells over days); format: cell-based, human
Procedure: FIGS. 7 and 8 depict the effect of fixed doses of 10 μM and 40 μM of the subject compounds, respectively, on the growth of the human brain cancer cell line U251MG-NCI. Here, the X-axis represents time in days, and the Y-axis represents the total number of viable cells.
Human breast cancer cell line MCF7 was grown in Richter's Improved Modified Eagle's Medium supplemented with 10% fetal bovine serum (FBS) and 2.2 g/L sodium bicarbonate. Human brain cancer cell line U251MG-NCI was grown in Dulbecco's Modified Eagle's Medium supplemented with 10% FBS. Human lung cancer cell line A549 was grown in Ham's F-12K medium (Fisher Scientific, Itasca, Ill.), supplemented with 10% FBS and 2 mM L-glutamine. Human colon cancer cell line HT29 was cultured in McCoy's 5A medium (Gibco, BRL, Gaithersburg, Md.), supplemented with 10% FBS. Human prostate cancer cell line PC3 was grown in Dulbecco's Modified Eagles Medium supplemented with 5% FBS. The A549 and MCF7 cell lines were cultured in 100 units/mL penicillin and 100 μg/mL streptomycin. HT29 and U251MG cell lines were grown in 50 μg/mL gentamycin. PC3 cell lines were maintained in 1% antibiotic-antimycotic solution (Sigma, St. Louis, Mo.). […]
Here, the above-identified compounds were administered in a 10 μM dose to cultures of the human brain cancer cell line U251MG-NCI and evaluated according to the standard protocol described above. […]

[2] = system: human brain cancer cells U251 MG; experiment: MTT cell survival assay, U251MG NCI; format: cell-based; conditions: six days after drug treatment, read-out: Cytotoxic Activity Human Tumor Cell Lines ID50 U251MG NCl
Procedure: Human breast cancer cell line MCF7 was grown in Richter's Improved Modified Eagle's Medium supplemented with 10% fetal bovine serum (FBS) and 2.2 g/L sodium bicarbonate. Human brain cancer cell line U251MG-NCI was grown in Dulbecco's Modified Eagle's Medium supplemented with 10% FBS. […] Human prostate cancer cell line PC3 was grown in Dulbecco's Modified Eagles Medium supplemented with 5% FBS. […] The cell cultures were maintained at 37° C. in 5% CO2/95% humidified air.
Here, a conventional MTT assay was used to evaluate percent cell survival. Exponentially growing monolayer cells were plated in 96-well plates at a density of 500 cells per well and allowed to grow for 24 hours. Serial dilutions of the drugs were added to the wells. Six days after drug treatment, 25 μl of MTT solution (5 mg/ml) was added to each well and incubated for 4 hours at 37° C. Then 100 μl of lysis buffer (20% sodium dodecyl sulfate, 50% DMF, and 0.8% acetic acid, pH 4.7) was added to each well and incubated for an additional 22 hours. A microplate reader (“EMAX”-brand, Molecular Devices, Sunnyvale, Calif.) set at 570 nm was used to determine the optical density of the cultures. Results are expressed as a ratio of the optical density in drug-treated wells to the optical density in wells treated with vehicle only.
The ID50 is the drug concentration that killed 50% of the cultured cells.

| Structure (SMILES) | melting point | further results |
| --- | --- | --- |
| CCNCCCNCC1CCC1CNCCCNCC (stereo not drawn) (as salt: hydrochloride) [SL-11044, N-Ethyl-N′-(2-(3′-ethylamino-propylaminomethyl)-trans-cyclobutylmethyl)-propane1,3-diamine tetrahydrochloride] | 77 to 78 °C |  |
| CCNCCCNC1CC1NCCCNCC (centres unmarked) [SL-11027] | 240 °C (dec.) | effect on growth of U251MG-NCI cells ([1]; 10 μM concentration): marked inhibition of cell growth |
| CCNCCCNCC1CC1CNCCCNCC (stereo not drawn) [SL-11038, N-Ethyl-N′-(2-(3′-ethylamino-propylaminomethyl)-trans-cyclopropylmethyl)-propane-1,3-diamine tetrahydrochloride] |  | IC50 [2]: 100 nM |
| CCNCCCNC1CCC1NCCCNCC (centres unmarked) [SL-11034] |  | effect on growth of U251MG-NCI cells ([1]; 40 μM concentration): marked inhibition of cell growth |
| CCNCCCNC[C@H]1CC[C@H]1CNCCCNCC (as salt: hydrochloride) [SL-11043, N-Ethyl-N′-(2-(3′-ethylamino-propylaminomethyl)-cis-cyclobutylmethyl)-propane1,3-diamine tetrahydrochloride] | 92 to 93 °C |  |
| CCNCCCNC[C@@H]1C[C@@H]1CNCCCNCC (as salt: hydrochloride) [SL-11037, N-Ethyl-N′-(2-(3′-ethylamino-propylaminomethyl)-cis-cyclopropylmethyl)-propane 1,3-diamine tetrahydrochloride] | 240 °C (dec.) |  |
| CCNCCCNCC1CC1CNCCCNCC (stereo not drawn) (as salt: hydrochloride) [SL-11038, N-Ethyl-N′-(2-(3′-ethylamino-propylaminomethyl)-trans-cyclopropylmethyl)-propane-1,3-diamine tetrahydrochloride] | 270 °C (dec.) |  |
